Results on two compounds are retold here after patent publication US7037644B1, “Means and methods for monitoring non-nucleoside reverse transcriptase inhibitor antiretroviral therapy and guiding therapeutic decisions in the treatment of HIV/AIDS” (ViroLogic, Inc., priority 1998, dated 2006).

Entries after “also recorded” stand apart in the source; their conditions may differ.

Assay [1] relates to RTV-302, patient 97-302 (RT K103N, I135M, T200A, P225H). As to the kind of experiment: Phenotypic susceptibility assay (patient RTV). As to conditions: patient virus RTV-302. It counts as cell-based, HIV-1. On the procedure: The resistance test vectors containing a functional luciferase gene cassette were constructed and host cells were transfected with the resistance test vector DNA. The resistant test vectors contained patient-derived reverse transcriptase and protease sequences that were either susceptible or resistant to the antiretroviral agents, such as nucleoside reverse transcriptase inhibitors, non-nucleoside reverse transcriptase inhibitors and protease inhibitors. […] The IC50 values were determined by plotting percent drug inhibition vs. log10 drug concentration.
Host cells were seeded in 10-cm-diameter dishes and were transfected several days after plating with resistance test vector plasmid DNA and the envelope expression vector. […] HIV capsid protein (p24) levels in the harvested cell culture media were determined by an EIA method as described by the manufacturer (SIAC; Frederick, Md.). […] The inhibitory effect of the drug was determined using the following equation: % luciferase inhibition=1−(RLUluc [drug]÷RLUluc)×100 where RLUluc [drug] is the relative light unit of luciferase activity in infected cells in the presence of drug and RLUluc is the Relative Light Unit of luciferase activity in infected cells in the absence of drug. […]
A resistance test vector was constructed as described in example 1 from a patient sample designated as 97-302. […] An IC50 was determined for each drug tested. […]

Assay [2] concerns RTV-644 (RT K101E, G190S). As to the kind of experiment: Phenotypic susceptibility assay (patient RTV). Format: cell-based, HIV-1. As to conditions: for decrease in susceptibility (fold, IC50): patient RTV pool; for change in susceptibility: patient virus vs reference virus. From the text:
(§1) The resistance test vectors containing a functional luciferase gene cassette were constructed and host cells were transfected with the resistance test vector DNA. The resistant test vectors contained patient-derived reverse transcriptase and protease sequences that were either susceptible or resistant to the antiretroviral agents, such as nucleoside reverse transcriptase inhibitors, non-nucleoside reverse transcriptase inhibitors and protease inhibitors. The resistance test vector viral particles produced by transfecting the resistance test vector DNA into host cells, either in the presence or absence of protease inhibitors, were used to infect target host cells grown either in the absence of NRTI or NNRTI or in the presence of increasing concentrations of the drug. The amount of luciferase activity produced in infected target host cells in the presence of drug was compared to the amount of luciferase produced in infected target host cells in the absence of drug. Drug resistance was measured as the amount of drug required to inhibit by 50% the luciferase activity detected in the absence of drug (inhibitory concentration 50%, IC50). The IC50 values were determined by plotting percent drug inhibition vs. log10 drug concentration.
Host cells were seeded in 10-cm-diameter dishes and were transfected several days after plating with resistance test vector plasmid DNA and the envelope expression vector. Transfections were performed using a calcium-phosphate precipitation procedure. The cell culture media containing the DNA precipitate was replaced with fresh medium, from one to 24 hours, after transfection. Cell culture media containing resistance test vector viral particles was harvested one to four days after transfection and was passed through a […] filter before being stored at […]. HIV capsid protein (p24) levels in the harvested cell culture media were determined by an EIA method as described by the manufacturer (SIAC; Frederick, Md.). Before infection, target cells (293 and 293/T) were plated in cell culture media. […] The inhibitory effect of the drug was determined using the following equation: % luciferase inhibition=1−(RLUluc [drug]÷RLUluc)×100 where RLUluc [drug] is the relative light unit of luciferase activity in infected cells in the presence of drug and RLUluc is the Relative Light Unit of luciferase activity in infected cells in the absence of drug. […]
A resistance test vector was constructed as described in Example 1 from a patient sample designated 97-644. […] RTV-644 was then tested using the phenotypic susceptibility assay to determine accurately and quantitatively the level of susceptibility to a panel of anti-retroviral drugs. […] An IC50 was determined for each drug tested. […]

Assay [3] relates to individual virus clones of patient 302: (K103N, P225H) compared with (K103N, I135M, R211K). As to the kind of experiment: Phenotypic susceptibility assay (patient virus clones). Format: cell-based, HIV. The settings on record: FIG. 8G.
Excerpt: as §1, with “Drug resistance was measured as the amount of drug required to inhibit by 50% the luciferase activity detected in the absence of drug (inhibitory concentration 50%, IC50).” left out
Host cells were seeded in 10-cm-diameter dishes and were transfected several days after plating with resistance test vector plasmid DNA and the envelope expression vector. […] HIV capsid protein (p24) levels in the harvested cell culture media were determined by an EIA method as described by the manufacturer (SIAC; Frederick, Md.). […]

Assay [4] deals with RTV-268, patient 97-268 (RT M41L, D67N, M184V, L210W, T215Y, K219Q, P236L). As to the kind of experiment: Phenotypic susceptibility assay (patient RTV). Format: cell-based, HIV-1. As to conditions: patient virus RTV-268 vs reference virus.
Excerpt: as §1
Host cells were seeded in 10-cm-diameter dishes and were transfected several days after plating with resistance test vector plasmid DNA and the envelope expression vector. Transfections were performed using a calcium-phosphate precipitation procedure. The cell culture media containing the DNA precipitate was replaced with fresh medium, from one to 24 hours, after transfection. Cell culture media containing resistance test vector viral particles was harvested one to four days after transfection and was passed through a […] filter before being stored at […]. HIV capsid protein (p24) levels in the harvested cell culture media were determined by an EIA method as described by the manufacturer (SIAC; Frederick, Md.). Before infection, target cells (293 and 293/T) were plated in cell culture media. Control infections were performed using cell culture media from mock transfections (no DNA) or transfections containing the resistance test vector plasmid DNA without the envelope expression plasmid. One to three or more days after infection the media was removed and cell lysis buffer (Promega) was added to each well. Cell lysates were assayed for luciferase activity (FIG. 3). The inhibitory effect of the drug was determined using the following equation: % luciferase inhibition=1−(RLUluc [drug]÷RLUluc)×100 where RLUluc [drug] is the relative light unit of luciferase activity in infected cells in the presence of drug and RLUluc is the Relative Light Unit of luciferase activity in infected cells in the absence of drug. IC50 values were obtained from the sigmoidal curves that were generated from the data by plotting the percent inhibition of luciferase activity vs. the log10 drug concentration. The drug inhibition curves are shown in (FIG. 3).
A resistance test vector was constructed as described in Example 1 from a patient sample designated 97-268. This patient had been treated with AZT and 3TC (NRTIs), indinavir and saquinavir (PRIs) and delavirdine (an NNRTI) for periods varying from 1 month to 2 years. Isolation of viral RNA and RT/PCR was used to generate a patient derived segment that comprised viral sequences coding for all of PR and amino acids 1-313 of RT. The patient derived segment was inserted into a indicator gene viral vector to generate a resistance test vector designated RTV-268. RTV-268 was then tested using the phenotypic susceptibility assay to determine accurately and quantitatively the level of susceptibility to a panel of anti-retroviral drugs. This panel of anti-retroviral drugs comprised members of the classes known as NRTIs (AZT, 3TC, d4T, ddI and ddC), NNRTIs (delavirdine and nevirapine), and PRIs (indinavir, nelfinavir, ritonavir, and saquinavir). An IC50 was determined for each drug tested. […]

With `CC(C)Nc1cccnc1N1CCN(C(=O)c2cc3cc(NS(C)(=O)=O)ccc3[nH]2)CC1` [delavirdine], the “change in susceptibility” value in assay [1] is on record as “modest decrease; also recorded: reduced susceptibility”. Further, in assay [2], the “decrease in susceptibility (fold, IC50)” value is given as 2.5 fold and the “change in susceptibility” value is on record as “little or no resistance”. Moreover, the “effect of P225H on resistance associated with K103N” value in assay [3] is given as “reduces the amount delavirdine resistance”.
Consider `Cc1ccnc2c1NC(=O)c1cccnc1N2C1CC1` [nevirapine], for which the results for the “change in susceptibility” value in assay [1], in assay [4] and in assay [2] were “significant decrease; also recorded: reduced susceptibility”, “no change; also recorded: same as wild type” and “resistant”, respectively. Moreover, the “decrease in susceptibility (fold, IC50)” value in assay [2] is 600 fold. Besides, the “effect of P225H on resistance associated with K103N” value in assay [3] is on record as “does not alter”.
